Results on 20 molecules are retold here after patent US20030145348A1, “Dehydroquinate dehydrase/shikimate dehydrogenase as a herbicide target” (priority 2000, published 2003).

For one test, the system named is shikimate dehydrogenase. As to conditions: cited from earlier work.
Test [1] deals with dehydroquinate dehydratase/shikimate dehydrogenase (Nicotiana tabacum, UniProt Q6PUF9). The test is described as follows: shikimate dehydrogenase activity assay of Example 5A (NADPH formation, OD 334 nm). In kind it is biochemical. As to conditions: 0.1 mM shikimate, 0.1 mM NADP, pH 9.9. Here is the method:
A. The shikimate dehydrogenase of the bifunctional dehydroquinate dehydratase/shikimate dehydrogenase enzyme catalyzes the following reaction:
shikimate+NADP ? dehydroshikimate+NADPH
The formation of NADPH can be measured over 10 minutes at an OD of 334 nm. The reaction is started by adding 1 microliter of the extracted crude protein. The reaction buffer contains:
100 mM glycine-NaOH, pH: 9.9;
0.1 mM shikimate (Sigma);
The full-length dehydroquinate dehydratase/shikimate dehydrogenase gene was cloned into the pQE vector (FIG. 7) and transformed into E. coli. A single colony of this E. coli strain was incubated overnight at 37° C. in the growth medium “2xYT” (per liter: Bacto tryptone 16 g, yeast extract 10 g, NaCl 5 g, 50 mg/l ampicillin and 50 mg/l kanamycin). Next day, 50 ml of 2*YT were inoculated with 0.5 ml of the overnight culture and grown at 25° C. to an OD600 of 0.6. Gene expression was induced by addition of IPTG (final concentration: 0.05 mM) and incubation was continued for 3 hours at 25° C. The cells were harvested at 4° C. by centrifugation for 10 minutes at 8000 rpm. The pellet was taken up in 3 ml of extraction buffer (50 mM NaH2PO4, 300 mM NaCl, 10 mM imidazole, 15% glycerol, 5 mM mercaptoethanol). The pellet was frozen in liquid nitrogen and again defrosted on ice. The cells were disrupted by sonication (4×45 seconds, 1 minute on ice). The cells were spun down for 20 minutes at 4° C. and 1500 rpm, and the supernatent was used directly for the enzyme measurements.
Six substances whose IC50 value is in the μM range were identified in a comprehensive screening based on the activity assay described in Example 5A (see Table 1).

Test [2] has as its system duckweed Lemna paucicostatag. Put plainly: Lemna test, chlorophyll fluorescence. The note with it: chlorophyll fluorescence vs untreated control; 5 mmol/l in DMSO diluted 1:5 in water, 25 μl in 0.5 ml nutrient solution. The class given is in vivo, Lemna minor. The arrangement: key: A herbicidal effect can be detected by comparison with an untreated control; it is identified in Table 1 by the symbol H. Here is the method:
The effect of the herbicidal compounds according to the invention on the growth of the duckweed Lemna paucicostatag is evident from the following test results:
Lemna minor was grown under nonsterile conditions in Petri dishes in 17 mmol/l MES buffer pH 5.5+1.5 mmol/l CaCl—2+1 g/l “Hakaphos spezial”.
To carry out the test, the Lemna cultures are washed and singled out into 0.5 ml of fresh nutrient solution in 48-well microtiter plates. The active ingredients are dissolved in DMSO at a concentration of 5 mmol/l and diluted 1:5 in water. 25 μl of this solution are used in the test.
The parameter measured is the fluorescence of the chlorophyll during the treatment. A herbicidal effect can be detected by comparison with an untreated control; it is identified in Table 1 by the symbol H.

Test [3] addresses T1, dehydroquinate dehydratase (Escherichia coli, UniProt P05194).
T1 sequence (P05194 1-252): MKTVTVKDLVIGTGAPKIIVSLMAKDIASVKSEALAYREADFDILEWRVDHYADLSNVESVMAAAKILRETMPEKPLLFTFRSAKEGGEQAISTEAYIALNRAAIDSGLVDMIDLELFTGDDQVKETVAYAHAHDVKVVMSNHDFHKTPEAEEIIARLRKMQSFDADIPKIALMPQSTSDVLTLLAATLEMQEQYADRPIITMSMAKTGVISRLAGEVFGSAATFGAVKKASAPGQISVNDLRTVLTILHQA
The note with it: in Escherichia coli; cited from earlier work.

dehydroquinate dehydratase/shikimate dehydrogenase, sequence (Q6PUF9 entry or part of it): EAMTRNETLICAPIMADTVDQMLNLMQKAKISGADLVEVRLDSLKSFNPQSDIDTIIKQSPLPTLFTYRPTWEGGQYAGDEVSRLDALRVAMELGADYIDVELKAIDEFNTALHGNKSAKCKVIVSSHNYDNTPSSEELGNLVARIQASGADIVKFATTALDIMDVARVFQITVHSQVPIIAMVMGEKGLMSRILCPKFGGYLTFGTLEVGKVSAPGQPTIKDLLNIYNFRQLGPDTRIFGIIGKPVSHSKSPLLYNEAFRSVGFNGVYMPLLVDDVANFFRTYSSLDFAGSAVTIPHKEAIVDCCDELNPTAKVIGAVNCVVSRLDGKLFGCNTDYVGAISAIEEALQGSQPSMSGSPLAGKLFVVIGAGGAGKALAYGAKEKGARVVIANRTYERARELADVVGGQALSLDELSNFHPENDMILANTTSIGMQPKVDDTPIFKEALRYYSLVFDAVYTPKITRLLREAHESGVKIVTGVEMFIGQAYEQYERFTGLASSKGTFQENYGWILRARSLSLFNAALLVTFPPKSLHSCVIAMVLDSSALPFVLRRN

As to `O=S(=O)([O-])[O-].[Cd+2]` [CdSO4], in the test on shikimate dehydrogenase, the “inhibitory effect on shikimate dehydrogenase” value is listed as “inhibitory effect”.
Regarding `O=S(=O)([O-])[O-].[Cu+2]` [CuSO4], in the test with shikimate dehydrogenase, the “inhibitory effect on shikimate dehydrogenase” value was “inhibitory effect”.
Take `[Cu+2]` [Cu^2+]: in the test with shikimate dehydrogenase, the “inhibitory effect on shikimate dehydrogenase” value is recorded as “inhibitory effect”.
For the molecule `[Cl][Hg][Cl]` [HgCl2], the “inhibitory effect on shikimate dehydrogenase” value in the test on shikimate dehydrogenase is “inhibitory effect”.
On to `[Hg+2]` [Hg^2+], for which, in the test with shikimate dehydrogenase, the “inhibitory effect on shikimate dehydrogenase” value is recorded as “inhibitory effect”.
On to `CCN1C(=O)C=CC1=O` [N-ethylmaleimides], for which the “inhibitory effect on shikimate dehydrogenase” value in the test with shikimate dehydrogenase is recorded as “inhibitory effect”.
Broadly, the IC50 is the concentration at which inhibition is half-maximal. On to `O=c1[nH]c2ccccc2c(=O)n1CCN1CC2C[C@@H](c3cccc(Cl)c3)C2C1` (stereo partly shown) [No. 1], for which half-maximal inhibition in test [1] (IC50) required 20 µM. The “Effect (herbicidal effect on growth of Lemna)” value in test [2] is “H”.
In test [1], `O=C(NNC(=O)c1sc2ccccc2c1Cl)Nc1cccc(Cl)c1` [No. 2] gave an IC50 of 23 µM. The “Effect (herbicidal effect on growth of Lemna)” value in test [2] is given as “H”.
On the same counts, the results for `CC(=N\O)/C(=N/Nc1ccc(S(C)(=O)=O)cc1)c1ccc(Cl)cc1` [No. 3] are 7 µM and “H”.
In turn, `O=C(Nc1c(Cl)cc(Cl)cc1Cl)c1cccc(O)c1O` [No. 5] came in with an IC50 in test [1] of 3 µM. Also, the “Effect (herbicidal effect on growth of Lemna)” value in test [2] is reported as “H”.
On the same counts, the results for `COc1cc(C(=S)N[C@H]2CC[C@@H](C(C)(C)C)CC2)ccc1OC(C)=O` [No. 6] are 11 µM and “H”.
As for `[Cl-].[Cl-].[Zn+2]` [ZnCl2], the “inhibitory effect on shikimate dehydrogenase” value with shikimate dehydrogenase is “inhibitory effect”.
Regarding `[Zn+2]` [Zn^2+], the “inhibitory effect on shikimate dehydrogenase” value with shikimate dehydrogenase is “inhibitory effect”.
On to D-(+)-tartrates, for which the “inhibitory effect on dehydroquinate dehydratase” value in test [3] is listed as “inhibitory effect”.
For the molecule acetates, the “inhibitory effect on dehydroquinate dehydratase” value in test [3] is “inhibitory effect”.
As to arsenites, the “inhibitory effect on shikimate dehydrogenase” value in the test with shikimate dehydrogenase is “inhibitory effect”.
On to berates, for which, in the test on shikimate dehydrogenase, the “inhibitory effect on shikimate dehydrogenase” value is “inhibitory effect”.
On to diethylcarbonates, for which, in test [3], the “inhibitory effect on dehydroquinate dehydratase” value is recorded as “inhibitory effect”.
Regarding p-chloromercuribenzoates, the “inhibitory effect on shikimate dehydrogenase” value in the test on shikimate dehydrogenase is “inhibitory effect”.
Take succinates: the “inhibitory effect on dehydroquinate dehydratase” value in test [3] was “inhibitory effect”.
